Patent US9556378B2, “Chelating agent precursors, fluids containing them, and their use” (AKZO NOBEL CHEMICALS INTERNATIONAL B.V., priority 2011, dated 2017)

Assays:
Assay type in all cases: physicochemical
[1] = Viscosity of chelate esters, Brookfield DV-II viscometer, spindle 25; settings: 25° C.
Protocol: (§1) In addition, where possible, the following physical properties of the chelate esters were determined at 25° C.: • Viscosity in mPas • Surface tension in mN/m • Density in kg/m^3
(§2) The viscosity was determined with a Brookfield DV-II viscometer equipped with spindle 25, which is suitable to measure high-viscous liquids. The principle of operation of the DV-II is to drive a specific spindle which is immersed in the test fluid. The viscous drag of the fluid against the spindle is measured by a calibrated spring. The viscosity is calculated from the rotational speed, type, and the torque of the spindle. In addition, the surface tension was determined with a bubble pressure tensiometer. The tensiometer produces gas bubbles at a constant rate and blows them through a capillary which is submerged in the sample liquid. The pressure (P) inside of the bubble continues to increase and the maximum value is obtained when the bubble has the completely hemispherical shape whose radius corresponds exactly to the radius of the capillary.

[2] = Solubility of chelate ester in water
[3] = Density, gravimetric (0.50 ml in weighted pipette); settings: for Density: 25° C.; for density compared with water (in words): not measurable for the highly viscous esters
Protocol: as §1
The density was determined gravimetrically by slowly sucking up exactly 0.50 ml of the chelate ester in a weighted pipette and by weighing the total weight of the pipette and the chelate-ester, the weight of 0.50 ml of chelate ester could be determined.

[4] = Surface tension, bubble pressure tensiometer; settings: 25° C.
Protocol: as §1, §2
By following each step of the bubble formation, change of bubble radius, and the corresponding pressure, the dynamic surface tension can be determined using the Laplace equation in the reduced form for spherical bubble shape within the liquid, equation: σ=(ΔPmax·Rcap)/2 where: σ=dynamic surface tension ΔPmax=maximum pressure drop Rcap=radius of capillary

[5] = Hydrolysis rate of chelate esters followed by Fe-TSV (released chelate acid); settings: for rate of hydrolysis (in words): 20 wt % ester in demi water, 90° C., Fe-TSV, FIG. 1-3; for effect of pH on hydrolysis rate (release of chelating agent): pH adjusted with caustic to 7 versus ~1, FIG. 4; for solubility of the chelate acid compared with EDTA acid: observed on hydrolysis of the esters, solid EDTA is formed
Protocol: (§3) In several experiments the hydrolysis of the chelate esters of Example 2 was investigated. First, the hydrolysis rate of the chelate esters was determined with ^1H and ^13C-NMR. […] Secondly, the hydrolysis rate was followed by determination of the Fe-TSV, which gives the concentration of the released chelate acid. To determine the Fe-TSV the chelate ester was added to demi water in a 5 ml glass vial, resulting in an ester concentration of 20 wt %. The mixture was continuously homogenized by shaking and a treatment in the ultrasonic bath. Subsequently, the vial was placed in a stove at 90° C. to simulate well conditions. After certain time intervals a sample was taken and analyzed on Fe-TSV. The percentage of hydrolysis is defined by:
The calculated chelate concentration at the start is calculated from the intake of the ester. The value is corrected for the purity as measured by NMR, assuming a 100% conversion of the corresponding chelate.

[6] = Hydrolysis rate of chelate esters by 1H and 13C-NMR; settings: 70° C.
Protocol: as §3, with “Fe-TSV.” for “Fe-TSV. The percentage of hydrolysis is defined by:”

[7] = pH of the ester in water
[8] = 1 wt % / 1% slurry in water, product as formed (acidic)

Molecule	Viscosity [1]	Soluble in water (pH = 0.5) [2]	Density [3]	Surface tension [4]	further results
CCCCOC(=O)CN(CCN(CC(=O)OCCCC)CC(=O)OCCCC)CC(=O)OCCCC [EDTA 4 butyl ester, EDTA-tetrabutyl ester, reference compound]	8,100 mPas	no (2 phases)	> 1 g/mL	52.6 mN/m	density compared with water (in words) [3]: clearly higher than water
COC(=O)CN(CCN(CC(=O)OC)CC(=O)OC)CC(=O)OC [EDTA 4 methyl ester, EDTA-tetramethyl ester, reference compound]	–	Yes	–	–	rate of hydrolysis (in words) [5]: hydrolyzed much faster than the corresponding GLDA or MGDA-methyl ester; Soluble in water (pH = ~7) [2]: Yes
CCCOC(=O)CN(CCN(CC(=O)OCCC)CC(=O)OCCC)CC(=O)OCCC [EDTA 4 propyl ester, EDTA-tetrapropyl ester, reference compound]	260,000 mPas	Yes	> 1 g/mL	51.3 mN/m	effect of pH on hydrolysis rate (release of chelating agent) [5]: decreased slightly with increasing pH; Soluble in water (pH = ~7) [2]: no (2 phases); density compared with water (in words) [3]: clearly higher than water
CCCCOCCOC(=O)CCC(C(=O)OCCOCCCC)N(CC(=O)OCCOCCCC)CC(=O)OCCOCCCC (stereo not shown) [GLDA 4 EGMBE, GLDA-tetraEMGBE ester]	67 mPas	no (2 phases)	1.06 g/mL	47.8 mN/m	–
CCCCOC(=O)CCC(C(=O)OCCCC)N(CC(=O)OCCCC)CC(=O)OCCCC (stereo not shown) [GLDA 4 butyl ester, GLDA-tetrabutyl ester]	38 mPas	no (2 phases)	1.04 g/mL	41.3 mN/m	–
COC(=O)CCC(C(=O)OC)N(CC(=O)OC)CC(=O)OC (stereo not shown) [GLDA 4 methyl ester, GLDA-tetramethyl ester]	–	Yes	–	–	rate of hydrolysis (in words) [5]: nearly the same speed of hydrolysis; time to almost complete hydrolysis [6]: ~2 days
CCCOC(=O)CCC(C(=O)OCCC)N(CC(=O)OCCC)CC(=O)OCCC (stereo not shown) [GLDA 4 propyl ester, GLDA-tetrapropyl ester]	178 mPas	no (2 phases)	1.11 g/mL	69.2 mN/m	effect of pH on hydrolysis rate (release of chelating agent) [5]: decreased slightly with increasing pH; Soluble in water (pH = ~7) [2]: no (2 phases)
CCOC(=O)CCC(C(=O)OCC)N(CC(=O)OCC)CC(=O)OCC (stereo not shown) [GLDA tetra ethyl ester]	–	–	–	–	pH ([7]; 1% slurry in water, less acidic product after treatment with 1 eq Na2CO3): ~9; pH [7, 8]: 1.8
O=C(O)CC[C@@H](C(=O)O)N(CC(=O)O)CC(=O)O [GLDA, glutamic acid N,N-diacetic acid]	–	–	–	–	solubility of the chelate acid compared with EDTA acid [5]: significantly higher
COC(=O)CN(CC(=O)OC)C(C)C(=O)OC (stereo not shown) [MGDA 3 methyl ester, MGDA-trimethyl ester]	–	Yes	–	–	rate of hydrolysis (in words) [5]: nearly the same speed of hydrolysis; time to almost complete hydrolysis [6]: ~2 days
CC(C(=O)O)N(CC(=O)O)CC(=O)O (stereo not shown) [MGDA, methylglycine N,N-diacetic acid]	–	–	–	–	solubility of the chelate acid compared with EDTA acid [5]: significantly higher
GLDA Mono Ethyl Ester	–	–	–	–	pH [7, 8]: 1.8
